Earlier results as cited in patent publication US20130028868A1 (priority 2011, published 2013).
Like-named read-outs stand apart in the source and are kept apart here.

What was measured:
[1] = BDIX rats (50 rats); 3 weeks, 1 mg/kg/week
[2] = not given; remark: listed apart in the source
[3] = in vivo
cells = details: in vitro experiments
[4] = not given; remark: listed apart in the source
[5] = by Cisplatin

N.N.[Cl][Pt][Cl] [Cisplatin]
chromosome aberration (animal tissue culture): causing chromosome aberration
marrow inhibition incidence (dosage amount≦100 mg/m2): 10˜20%
marrow inhibition incidence (dosage≧120 mg/m2): about 40%
deaths within 455 days after first time administration [1]: 33
died from leukemia [1]: 12
died from malignant tumor [1]: 13
died from renal fibrosarcoma [1]: 1
excreted along with urine ([2]; 96 hours after treatment): 25%˜45
drug in human milk ([2]; reports): drug detected in human milk

CC(=O)O[C@H]1C(=O)[C@@]2(C)[C@H]([C@H](OC(=O)c3ccccc3)[C@]3(O)C[C@H](OC(=O)[C@H](O)[C@@H](NC(=O)c4ccccc4)c4ccccc4)C(C)=C1C3(C)C)[C@]1(OC(C)=O)CO[C@@H]1C[C@@H]2O [Paclitaxel]
incidence rate of serious neurotoxicity [3]: 6%
radiosensitization (cells): significant radiosensitization
renal clearance of the drug (share) ([4]; in vivo): 1-8%
protein binding ([4]; intravenous paclitaxel): 89%-98
reduction of clearance of the drug [5]: about ⅓
